Laboratory results from patent US11033539B2, “Compounds of formulas (VII), (VIII), (IX), (XI), (XII), (XIII), and (XIV) as muscarinic receptor 4(M4) antagonists for treating neurological diseases” (Neurocrine Biosciences, Inc., priority 2015, dated 2021).

Experiments:
human M1 receptor = human M1 receptor (Homo sapiens (Human), UniProt P11229); experiment: Radioligand (tritiated N-methylscopolamine) binding assay, M1; settings: CHO cell membranes expressing human M1; 1.5 nM tritiated N-methylscopolamine; 90 min, 37° C.; read-out: Ki against M1 receptor (Table 21, M1)
human M1 receptor, sequence (P11229 whole entry): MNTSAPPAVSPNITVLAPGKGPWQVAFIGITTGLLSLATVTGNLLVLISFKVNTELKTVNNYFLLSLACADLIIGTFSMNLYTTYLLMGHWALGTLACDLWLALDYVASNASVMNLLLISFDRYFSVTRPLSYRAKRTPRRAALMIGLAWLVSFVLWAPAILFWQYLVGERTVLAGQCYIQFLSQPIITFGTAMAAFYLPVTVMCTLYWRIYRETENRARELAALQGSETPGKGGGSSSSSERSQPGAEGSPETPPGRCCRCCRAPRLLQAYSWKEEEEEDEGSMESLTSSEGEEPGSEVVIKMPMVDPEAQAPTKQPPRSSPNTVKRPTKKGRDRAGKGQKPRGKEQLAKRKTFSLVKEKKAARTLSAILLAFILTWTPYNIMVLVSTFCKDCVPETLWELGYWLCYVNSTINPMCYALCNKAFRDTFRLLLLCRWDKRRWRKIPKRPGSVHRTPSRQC
In short: (§1)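 CHO membranes; 1.5 nM radioligand; 12-point compound dose-response, 10 μM to […]; HEPES/NaCl/MgCl2/EDTA buffer pH 7.4; 90 min, 37 °C. PEI-treated glass fiber filtration, radioactivity counting. Ki from inhibition of binding.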

human M2 receptor = human M2 receptor (Homo sapiens (Human), UniProt P08172); experiment: Radioligand (tritiated N-methylscopolamine) binding assay, M2; settings: CHO cell membranes expressing human M2; 1.5 nM tritiated N-methylscopolamine; 90 min, 37° C.; read-out: Ki against M2 receptor (Table 21, M2)
human M2 receptor, sequence (P08172 whole entry): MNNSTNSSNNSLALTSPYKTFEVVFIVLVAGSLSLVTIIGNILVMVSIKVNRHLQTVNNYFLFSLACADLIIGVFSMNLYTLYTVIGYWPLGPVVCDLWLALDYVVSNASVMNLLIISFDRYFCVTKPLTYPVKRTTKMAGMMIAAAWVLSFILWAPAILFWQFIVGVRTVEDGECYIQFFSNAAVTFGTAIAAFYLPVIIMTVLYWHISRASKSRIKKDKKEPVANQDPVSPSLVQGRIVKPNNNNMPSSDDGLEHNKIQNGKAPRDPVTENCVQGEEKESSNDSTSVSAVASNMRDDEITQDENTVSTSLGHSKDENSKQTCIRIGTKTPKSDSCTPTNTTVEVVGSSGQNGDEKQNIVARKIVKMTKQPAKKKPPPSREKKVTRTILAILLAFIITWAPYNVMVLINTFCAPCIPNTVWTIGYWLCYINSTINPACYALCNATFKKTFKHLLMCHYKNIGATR
In short: as §1

human M3 receptor = human M3 receptor (Homo sapiens (Human), UniProt P20309); experiment: Radioligand (tritiated N-methylscopolamine) binding assay, M3; settings: CHO cell membranes expressing human M3; 1.5 nM tritiated N-methylscopolamine; 90 min, 37° C.; read-out: Ki against M3 receptor (Table 21, M3)
human M3 receptor, sequence (P20309 whole entry): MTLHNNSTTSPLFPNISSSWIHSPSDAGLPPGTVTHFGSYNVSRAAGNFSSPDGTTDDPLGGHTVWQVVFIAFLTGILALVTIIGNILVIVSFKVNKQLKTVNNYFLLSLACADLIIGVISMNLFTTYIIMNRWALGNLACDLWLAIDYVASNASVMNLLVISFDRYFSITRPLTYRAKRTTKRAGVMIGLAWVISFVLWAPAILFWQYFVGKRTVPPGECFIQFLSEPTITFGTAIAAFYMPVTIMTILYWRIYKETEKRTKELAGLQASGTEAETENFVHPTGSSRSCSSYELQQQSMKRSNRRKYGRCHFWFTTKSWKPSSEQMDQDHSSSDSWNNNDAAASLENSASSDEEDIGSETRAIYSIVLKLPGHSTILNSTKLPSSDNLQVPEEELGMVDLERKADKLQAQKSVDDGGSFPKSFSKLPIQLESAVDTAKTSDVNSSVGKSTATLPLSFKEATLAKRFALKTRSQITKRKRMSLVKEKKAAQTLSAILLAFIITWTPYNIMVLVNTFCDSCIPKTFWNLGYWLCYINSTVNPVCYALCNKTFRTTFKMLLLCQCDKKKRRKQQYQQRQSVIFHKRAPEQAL
In short: as §1

human M4 receptor = human M4 receptor (Homo sapiens (Human), UniProt P08173); experiment: Radioligand (tritiated N-methylscopolamine) binding assay, M4; settings: Ki against the M4 receptor; membranes from CHO cells expressing human M4; tritiated N-methylscopolamine 1.5 nM; read-out: Ki
human M4 receptor, sequence (P08173 whole entry): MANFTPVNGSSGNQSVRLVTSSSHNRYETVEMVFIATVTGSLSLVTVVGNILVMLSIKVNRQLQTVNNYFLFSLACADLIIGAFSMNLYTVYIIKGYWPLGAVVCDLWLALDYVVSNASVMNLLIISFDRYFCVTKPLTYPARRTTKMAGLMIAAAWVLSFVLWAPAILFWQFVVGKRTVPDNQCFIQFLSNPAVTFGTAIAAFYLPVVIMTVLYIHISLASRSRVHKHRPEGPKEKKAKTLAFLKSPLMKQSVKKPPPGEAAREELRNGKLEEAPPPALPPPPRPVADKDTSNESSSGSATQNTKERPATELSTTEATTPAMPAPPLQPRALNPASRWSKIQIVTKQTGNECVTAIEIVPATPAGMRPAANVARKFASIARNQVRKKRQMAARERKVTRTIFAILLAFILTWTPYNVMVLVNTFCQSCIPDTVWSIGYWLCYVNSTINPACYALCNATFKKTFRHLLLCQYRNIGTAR
In short: as §1

human M5 receptor = human M5 receptor (Homo sapiens (Human), UniProt P08912); experiment: Radioligand (tritiated N-methylscopolamine) binding assay, M5; settings: CHO cell membranes expressing human M5; 1.5 nM tritiated N-methylscopolamine; 90 min, 37° C.; read-out: Ki against M5 receptor (Table 21, M5)
human M5 receptor, sequence (P08912 whole entry): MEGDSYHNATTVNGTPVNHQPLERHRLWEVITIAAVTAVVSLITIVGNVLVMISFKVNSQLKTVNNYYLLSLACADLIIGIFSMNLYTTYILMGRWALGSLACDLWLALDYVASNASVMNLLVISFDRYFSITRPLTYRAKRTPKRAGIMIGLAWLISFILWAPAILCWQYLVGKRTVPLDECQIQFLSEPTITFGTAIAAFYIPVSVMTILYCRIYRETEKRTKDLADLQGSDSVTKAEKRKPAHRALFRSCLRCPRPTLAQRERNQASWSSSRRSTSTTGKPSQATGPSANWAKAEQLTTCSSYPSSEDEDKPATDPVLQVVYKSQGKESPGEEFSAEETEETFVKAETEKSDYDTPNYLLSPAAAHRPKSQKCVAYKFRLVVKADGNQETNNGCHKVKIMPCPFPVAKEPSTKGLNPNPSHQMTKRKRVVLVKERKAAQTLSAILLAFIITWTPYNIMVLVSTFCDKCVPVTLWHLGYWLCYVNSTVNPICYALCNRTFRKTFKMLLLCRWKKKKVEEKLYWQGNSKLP
In short: as §1

Row | SMILES | Ki (human M1 receptor) [µM] | Ki (human M2 receptor) [µM] | Ki (human M3 receptor) [µM] | Ki (human M4 receptor) [µM] | Ki (human M5 receptor) [µM]
1 | O=C(NCCC1CCN(Cc2ccccc2)CC1)C1CCN(c2ccc(F)c(OC(F)(F)F)c2)CC1 [10-11, N-[2-(1-benzylpiperidin-4-yl)ethyl]-1-[4-fluoro-3-(trifluoromethoxy)phenyl]piperidine-4-carboxamide] | 0.1 to 1 | 0.1 to 1 | > 1 | < 0.01 | > 1
2 | O=C(NCCC1CCN(Cc2ccccc2)CC1)N1CCC(c2ccc(C(F)(F)F)cc2)CC1 [8-1, N-[2-(1-benzylpiperidin-4-yl)ethyl]-4-[4-(trifluoromethyl)phenyl]piperidine-1-carboxamide] | 0.1 to 1 | 0.1 to 1 | 0.1 to 1 | < 0.01 | 0.1 to 1
3 | C[C@H]1CN(C(=O)NCCC2CCN(Cc3ccccc3)CC2)CCN1c1cc(F)c(F)c(F)c1 [4-71, (3S)-N-[2-(1-benzylpiperidin-4-yl)ethyl]-3-methyl-4-(3,4,5-trifluorophenyl)piperazine-1-carboxamide] | 0.1 to 1 | 0.1 to 1 | > 1 | < 0.01 | > 1
4 | N#Cc1cc(OC(F)(F)F)cc(N2CCC(C(=O)NCCC3CCN(Cc4ccccc4)CC3)CC2)c1 [10-23, N-[2-(1-benzylpiperidin-4-yl)ethyl]-1-[3-cyano-5-(trifluoromethoxy)phenyl]piperidine-4-carboxamide] | 0.1 to 1 | 0.01 to 0.1 | > 1 | < 0.01 | > 1
5 | C[C@@H]1CN(c2ccc(F)c(F)c2)CCN1C(=O)NCCC1CCN(Cc2ccccc2)CC1 [4-15, (2R)-N-[2-(1-benzylpiperidin-4-yl)ethyl]-4-(3,4-difluorophenyl)-2-methylpiperazine-1-carboxamide] | 0.1 to 1 | 0.1 to 1 | > 1 | < 0.01 | > 1
6 | C[C@@H]1CN(c2ncc(Br)cn2)CCN1C(=O)NCCC1CCN(Cc2ccccc2)CC1 [5-31, (2R)-N-[2-(1-benzylpiperidin-4-yl)ethyl]-4-(5-bromopyrimidin-2-yl)-2-methylpiperazine-1-carboxamide] | 0.01 to 0.1 | < 0.01 | 0.01 to 0.1 | < 0.01 | 0.1 to 1
7 | C[C@@H]1CN(c2ncc(C(F)(F)F)c(N)n2)CCN1C(=O)NCCC1CCN(Cc2ccccc2)CC1 [5-29, (2R)-4-[4-amino-5-(trifluoromethyl)pyrimidin-2-yl]-N-[2-(1-benzylpiperidin-4-yl)ethyl]-2-methylpiperazine-1-carboxamide] | > 1 | 0.1 to 1 | > 1 | < 0.01 | > 1
8 | O=C(NCCC1CCN(Cc2ccccc2)CC1)N1CCN(c2ccc(C(F)(F)F)cn2)CC1 [4-77, N-[2-(1-benzylpiperidin-4-yl)ethyl]-4-[5-(trifluoromethyl)pyridin-2-yl]piperazine-1-carboxamide] | 0.1 to 1 | 0.01 to 0.1 | > 1 | < 0.01 | > 1
9 | C[C@@H]1CN(c2ncc(C#N)cn2)C[C@H](C)N1C(=O)NCCC1CCN(Cc2ccccc2)CC1 [5-20, (2S,6R)-N-[2-(1-benzylpiperidin-4-yl)ethyl]-4-(5-cyanopyrimidin-2-yl)-2,6-dimethylpiperazine-1-carboxamide] | > 1 | 0.1 to 1 | > 1 | < 0.01 | > 1
10 | C[C@@H]1CN(c2ccc(OC(F)(F)F)c(C#N)c2)CCN1C(=O)NCC[C@H]1CCN(Cc2ccccc2)C1 [9-10, (2R)-N-{2-[(3S)-1-benzylpyrrolidin-3-yl]ethyl}-4-[3-cyano-4-(trifluoromethoxy)phenyl]-2-methylpiperazine-1-carboxamide] | 0.1 to 1 | 0.1 to 1 | 0.1 to 1 | < 0.01 | > 1
11 | O=C(NCCC1CCN(Cc2ccccc2)CC1)C1CCN(c2cc(F)cc(F)c2)CC1 [10-22, N-[2-(1-benzylpiperidin-4-yl)ethyl]-1-(3,5-difluorophenyl)piperidine-4-carboxamide] | > 1 | 0.1 to 1 | > 1 | < 0.01 | > 1
12 | C[C@@H]1CN(c2ncc(C#N)c(N)n2)CCN1C(=O)NCCC1CCN(Cc2ccccc2)CC1 [5-1, (2R)-4-(4-amino-5-cyanopyrimidin-2-yl)-N-[2-(1-benzylpiperidin-4-yl)ethyl]-2-methylpiperazine-1-carboxamide] | > 1 | 0.1 to 1 | > 1 | < 0.01 | > 1
13 | C[C@H]1CN(c2ncc(C(F)(F)F)cc2F)CCC1C(=O)NCCC1CCN(Cc2ccccc2)CC1 (stereo partly drawn) [10-81, (3R)-N-[2-(1-benzylpiperidin-4-yl)ethyl]-1-[3-fluoro-5-(trifluoromethyl)pyridin-2-yl]-3-methylpiperidine-4-carboxamide] | 0.01 to 0.1 | 0.01 to 0.1 | 0.01 to 0.1 | < 0.01 | 0.1 to 1
14 | O=C(NCCC1(CO)CCN(Cc2ccccc2)CC1)C1CCN(c2ccc(OC(F)(F)F)c(F)c2)CC1 [9-64, N-{2-[1-benzyl-4-(hydroxymethyl)piperidin-4-yl]ethyl}-1-[3-fluoro-4-(trifluoromethoxy)phenyl]piperidine-4-carboxamide] | 0.1 to 1 | 0.1 to 1 | > 1 | < 0.01 | > 1
15 | C[C@@H]1CN(C(=O)NCCC2CCN(Cc3ccccc3)CC2)CCN1c1cc(F)c(F)c(F)c1 [4-17, (3R)-N-[2-(1-benzylpiperidin-4-yl)ethyl]-3-methyl-4-(3,4,5-trifluorophenyl)piperazine-1-carboxamide] | > 1 | 0.1 to 1 | > 1 | < 0.01 | > 1

More lines, now with the values ahead:

Row | Ki (human M1 receptor) [µM] | Ki (human M2 receptor) [µM] | Ki (human M3 receptor) [µM] | Ki (human M4 receptor) [µM] | Ki (human M5 receptor) [µM] | SMILES
16 | 0.01 to 0.1 | 0.01 to 0.1 | 0.1 to 1 | < 0.01 | 0.1 to 1 | C[C@@H]1CN(c2cnc(C(F)(F)F)nc2)C[C@@H](C)N1C(=O)NCCC1CCN(Cc2ccccc2)CC1 [26-6]
17 | 0.1 to 1 | 0.01 to 0.1 | > 1 | < 0.01 | > 1 | C[C@@H]1CN(c2cnc(Cl)c(F)c2)C[C@H](C)N1C(=O)NCCC1CCN(Cc2ccccc2)CC1 [22-8]
18 | 0.1 to 1 | 0.01 to 0.1 | > 1 | < 0.01 | > 1 | C[C@@H]1CN(c2ncc(C(F)(F)F)c(N)n2)C[C@@H](C)N1C(=O)NCCC1CCN(Cc2ccccc2)CC1 [26-1, (2R,6R)-4-[4-amino-5-(trifluoromethyl)pyrimidin-2-yl]-N-[2-(1-benzylpiperidin-4-yl)ethyl]-2,6-dimethylpiperazine-1-carboxamide]
19 | 0.1 to 1 | < 0.01 | 0.1 to 1 | < 0.01 | 0.1 to 1 | C[C@@H]1CN(c2cnc(C(F)(F)F)cn2)C[C@H](C)N1C(=O)NCCC1CCN(Cc2ccccc2)CC1 [22-23]
20 | > 1 | 0.1 to 1 | > 1 | < 0.01 | > 1 | C[C@@H]1CN(c2ccc(C#N)cc2F)C[C@H](C)N1C(=O)NCCC1CCN(Cc2ccccc2)CC1 [22-3]
21 | 0.1 to 1 | 0.01 to 0.1 | > 1 | < 0.01 | > 1 | C[C@@H]1CN(c2cc(F)c(C#N)c(F)c2)C[C@H](C)N1C(=O)NCCC1CCN(Cc2ccccc2)CC1 [22-9]
